Assay results reported in publication PMC10515640, “Structure-Based Optimization of Covalent, Small-Molecule Stabilizers of the 14-3-3σ/ERα Protein–Protein Interaction from Nonselective Fragments” (Journal of the American Chemical Society, 2023).

Tests used:
14-3-3σ = biological target: T1, 14-3-3σ (Homo sapiens, UniProt P31947); assay: Mass spectrometry dose response, compound binding to 14-3-3σ in the absence of peptide (apo); details: 100 nM compound, 100 nM 14-3-3σ
T1 construct: The 14-3-3 σ isoform (full-length for mass spectrometry and fluorescence anisotropy assays, ΔC for crystallography); made in house; host or cells: E. coli Rosetta 2(DE3)pLysS, pPROEX HTb vector
T1 sequence (P31947 1-248): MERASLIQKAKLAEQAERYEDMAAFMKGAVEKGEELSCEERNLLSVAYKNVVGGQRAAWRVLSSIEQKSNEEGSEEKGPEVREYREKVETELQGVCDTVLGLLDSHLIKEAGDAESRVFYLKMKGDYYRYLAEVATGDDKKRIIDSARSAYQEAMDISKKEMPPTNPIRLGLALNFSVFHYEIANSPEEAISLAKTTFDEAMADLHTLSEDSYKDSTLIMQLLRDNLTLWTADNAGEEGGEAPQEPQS
Excerpt: (§1) Two orthogonal assays were developed for screening. For the primary assay, mass spectrometry (MS) was used to monitor the formation of the covalent bond between the compound and the native cysteine (Cys38 on 14-3-3σ) (Figure 1D). The assay was first performed in the absence of peptide to determine binding to 14-3-3σ only (apo screening, D1) and then in the presence of both 14-3-3σ and the peptide as an indication of how much the peptide stabilized compound binding (D2). […] As a secondary assay, fluorescence anisotropy (FA) was used. In this case, compounds were titrated to mixtures of 14-3-3σ and FAM-labeled peptides. […] Thus, the two assays are highly complementary; the MS assay reports on compound binding and the FA assay reports on peptide binding. […]
(§2) Mass spectrometry dose response assays were performed on a Waters Acquity UPLC/ Xevo G2-XS Q-Tof mass spectrometer. A Waters UPLC Protein BEH-C4 Column (300 Å, 1.7 μm, 2.1 mm x 50 mm) was used to desalt the samples prior to application on the mass spectrometer. For 19-point MS dose responses, 50 mM compound stocks in DMSO were serially diluted in 3-fold increment in a master plate, then 1000 nl of the compounds were transferred in the assay plates. Master mixes containing 100 nM full-length wild type 14-3-3σ in the absence or presence of […]
(§3) Assay buffer was TRIS (10 mM, pH 8.0) and final volume per well was 50 μl, with final top concentration of compounds dose response series at 1 mM. The reaction mixtures were incubated for 1h at rt before subjected to MS. Four measurements (1h, 8h, 16h, 24h) were performed for time-course experiments. The injection volume for each sample was 6 μl. 24 μl of sample were needed for the time-course experiments, so the total volume in the assay plate was adjusted to 50 μl, to account for the dead volume in the injections. Data collection and automated processing followed a custom workflow, as previously described.1 z Plots were created using GraphPad Prism with the log(agonist) vs. response (variable slope, four parameters) fitting model. […]

14-3-3σ/ERα [1] = biological target: T2, 14-3-3σ/ERα (Homo sapiens, UniProt P03372+P31947); assay: Mass spectrometry dose response, compound binding to 14-3-3σ in the presence of ERα phosphopeptide; details: 100 nM compound, 100 nM 14-3-3σ, ERα-peptide 2 µM
T2 construct: The 14-3-3 σ isoform (full-length for mass spectrometry and fluorescence anisotropy assays, ΔC for crystallography); made in house; host or cells: E. coli Rosetta 2(DE3)pLysS, pPROEX HTb vector
Excerpt: as §1, §2, §3

14-3-3σ/C-RAF [2] = biological target: T3, 14-3-3σ/C-RAF (Homo sapiens, UniProt P31947); assay: Mass spectrometry dose response, compound binding to 14-3-3σ in the presence of C-RAF phosphopeptide; details: 100 nM compound, 100 nM 14-3-3σ, C-RAF peptide 18 µM
T3 construct: The 14-3-3 σ isoform (full-length for mass spectrometry and fluorescence anisotropy assays, ΔC for crystallography); made in house; host or cells: E. coli Rosetta 2(DE3)pLysS, pPROEX HTb vector
T3 sequence (P31947 1-248): T1 sequence (P31947 1-248)
Excerpt: as §1, §2, §3

14-3-3σ/ERα [3] = biological target: T2, 14-3-3σ/ERα; assay: Fluorescence anisotropy compound titration, FAM-labeled ERα peptide; type: binding; details: 10 nM ERα-FAM labeled peptide, 1 µM 14-3-3σ, overnight incubation (24 h); read-out: EC50 value ERα (FA compound titration)
Excerpt: as §1
(§4) diluted in buffer (10 mM HEPES, pH 7.5, 150 mM NaCl, 0.1% Tween20, 1 mg/mL Bovine Serum Albumin (BSA; Sigma-Aldrich). Final DMSO in the assay was always 1%. Dilution series of 14-3-3 proteins or compounds were made in […]
(§5) Compound titrations were made by titrating the compound in a 2-fold dilution series (starting at 500 or 1000 µM) to a mix of fluorescein-labeled peptide (10 nM) and 14-3-3σ (concentration at approximately the EC20 to EC30 value of the protein-peptide complex; 1 µM for ERα and 5 µM for C-RAF). Using the ~EC25 value makes the assay sensitive for measuring an increase in PPI formation. Fluorescence anisotropy measurements were performed directly and after overnight incubation at room temperature. […]
(§6) Wells containing only FAM-peptide were used to set as G-factor at 35 mP. Data reported are at endpoint. EC50 and apparent Kd values were obtained from fitting the data with a four-parameter logistic model (4PL) in GraphPad Prism 7 for Windows. Data was obtained and averaged based on either three (compound titrations) or two (protein titrations) independent experiments.

14-3-3σ/C-RAF [4] = biological target: T3, 14-3-3σ/C-RAF; assay: Fluorescence anisotropy compound titration, FAM-labeled C-RAF peptide; type: binding; details: 10 nM C-RAF-FAM labeled peptide, 5 µM 14-3-3σ, overnight incubation; read-out: EC50 value C-RAF (FA compound titration)
Excerpt: as §1, §4, §5, §6

SMILES	Percentage (%) bound of compound to 14-3-3σ, APO 1h (14-3-3σ)	Percentage (%) bound of compound to 14-3-3σ, APO 8h (14-3-3σ)	Percentage (%) bound of compound to 14-3-3σ, APO 16h (14-3-3σ)	Percentage (%) bound of compound to 14-3-3σ, APO 24h (14-3-3σ)	Percentage (%) bound of compound to 14-3-3σ, ERα 1h (14-3-3σ/ERα [1])	Percentage (%) bound of compound to 14-3-3σ, ERα 8h (14-3-3σ/ERα [1])	Percentage (%) bound of compound to 14-3-3σ, ERα 16h (14-3-3σ/ERα [1])	Percentage (%) bound of compound to 14-3-3σ, ERα 24h (14-3-3σ/ERα [1])	Percentage (%) bound of compound to 14-3-3σ, CRAF 1h (14-3-3σ/C-RAF [2])	Percentage (%) bound of compound to 14-3-3σ, CRAF 8h (14-3-3σ/C-RAF [2])	Percentage (%) bound of compound to 14-3-3σ, CRAF 24h (14-3-3σ/C-RAF [2]; 24h)	Percentage (%) bound of compound to 14-3-3σ, CRAF 24h (14-3-3σ/C-RAF [2]; head prints 24h)	EC50 (14-3-3σ/ERα [3])	EC50 (14-3-3σ/C-RAF [4])
O=C(CCl)NCC1CCN(C(=O)C2(Nc3ccc(Cl)cc3)CC2)CC1 [compound 97]	0.3%	0.4%	0.8%	5.9%	1.0%	2.5%	5.8%	21.3%	1.0%	1.7%	5.5%	5.1%	15 ± 1 µM	101 ± 15 µM
O=C(CCl)NCC1CCN(C(=O)C2(Oc3ccc(Cl)cc3)CCCC2)CC1 [compound 117]	0%	0.3%	0.8%	1.1%	5.6%	15.7%	34.4%	63.7%	10.7%	21.4%	47.3%	33.7%	15 ± 2 µM	32 ± 8 µM
O=C(CCl)NCC1CCN(C(=O)C2(Oc3ccccc3)CCCC2)CC1 [compound 119]	0%	1.0%	1.0%	2.5%	1.9%	5.3%	10.9%	21.0%	6.2%	19.7%	53.6%	28.5%	24 ± 2 µM	18 ± 0.3 µM
O=C(CCl)NCC1CCN(C(=O)C2(Nc3ccccc3)CCCC2)CC1 [compound 120]	0%	0%	0%	0%	0%	0%	0%	4.5%	0%	0%	0%	0%	> 150 µM	> 150 µM
